Laboratory results reported in US20110105397A1, “METHOD FOR TREATING HEART FAILURE WITH STRESSCOPIN-LIKE PEPTIDES” (priority 2009, published 2011).
Several values for one entry are separate records, joined by “and”; a condition that tells them apart may be missing. Equal entries are not always repeated.

Key:
healthy subjects = test: Human hemodynamics, healthy subjects, 24- and 72-hour continuous IV infusion, 54 ng/kg/min; format: in vivo
Experimental: Efficacy was based on the pharmacodynamic evaluation of hemodynamics, which was monitored using the noninvasive technique of impedance cardiography. Heart rate values were collected by impedance cardiography measurements. It was noted that the heart rate of subjects receiving placebo were elevated on the day of their infusions, at baseline before the infusion, and for the first 3 to 4 hours after the infusions were started (FIG. 17). Based on this observation, it appeared that there was a potential effect of period on the observed heart rate.
Healthy subjects who received placebo had heart rates that decreased compared with baseline during the infusion.

[1] = test system: anaesthetized mongrel dogs; test: Hemodynamic, angiographic, echocardiographic profile in anaesthetized healthy dogs, IV bolus; format: in vivo, dog
Experimental: The effects of h-SCP (SEQ ID NO: 1) on cardiovascular function were also assessed in anaesthetized mongrel dogs following intravenous bolus and 30-minute infusions. Hemodynamic and left ventricular systolic and diastolic function was evaluated using conventional hemodynamic, angiographic, echocardiographic, and radiographic methods with the results summarized in Table 16.

[2] = test system: anaesthetized male Sprague-Dawley rats; test: Hemodynamics in anaesthetized rats (IV bolus); format: in vivo, rat; conditions: IV bolus 0.13 μg/kg to 44 μg/kg
Experimental: The hemodynamic profile of h-SCP (SEQ ID NO:1) was determined in sodium pentobarbital anaesthetized male Sprague-Dawley rats (FIG. 10). A SPR-320 Mikro-Tip® integrated catheter-tipped micro-manometer (Millar Instruments, Houston, Tex., U.S.A.) was placed in the right femoral artery for blood pressure measurements, and another one directly in the left ventricle for LV pressure measurement. […] The changes in hemodynamic parameters induced by h-SCP (SEQ ID NO:1, full circle in FIG. 10) were blocked by pretreatment with anti-sauvagine-30 (SEQ ID NO:118, open circle in FIG. 10).

[3] = test system: subjects with heart failure; test: Echocardiography substudy in heart failure subjects; format: in vivo, human
Experimental: An echocardiography substudy was conducted to examine the impact of h-SCP (SEQ ID NO:1) on cardiodynamic parameters. Five subjects elected to participate in the echocardiography substudy. One subject received placebo and 4 subjects received h-SCP (SEQ ID NO:1) at doses ranging from 9 to 45 ng/kg/min during their last 2.5-hour infusion period when the echocardiogram was obtained. […] Because of the small number of subjects who participated in this substudy and the varied dose administered the results are not conclusionary, but mainly indicative of the effect.

H-TKFTLSLDVPTNIMNLLFNIAKAKNLRAQAAANAHLMAQI-NH2 [SEQ ID NO: 1, TKFTLSLDVPTNIMNLLFNIAKAKNLRAQAAANAHLMAQI-NH2]
time in which the increase in heart rate occurred (healthy subjects): ≤ 15 min
CO (Cardiac output) ([1]; IV bolus 0.13 μg/kg): 2.19 L/min
HR (Heart rate) ([1]; IV bolus 0.13 μg/kg): 73 beats/min
LV dP/dt (LV contractility) ([1]; IV bolus 0.13 μg/kg): 1546 mmHg/sec
LVEDA (LV end diastolic area) ([1]; IV bolus 0.13 μg/kg): 12.9 cm^2
LVEDV (LV end diastolic volume) ([1]; IV bolus 0.13 μg/kg): 55 mL
LVEF (LV ejection fraction) ([1]; IV bolus 0.13 μg/kg): 55%
LVESA (LV end systolic area) ([1]; IV bolus 0.13 μg/kg): 6.9 cm^2
LVESV (LV end systolic volume) ([1]; IV bolus 0.13 μg/kg): 25 mL
LVFAS (LV fractional area of shortening) ([1]; IV bolus 0.13 μg/kg): 46%
PSAP (Peak systolic aortic pressure) ([1]; IV bolus 0.13 μg/kg): 92 mmHg
SV (Stroke volume) ([1]; IV bolus 0.13 μg/kg): 30 mL
increase in heart rate (largest change) ([1]; IV bolus 0.13 μg/kg to 13.1 μg/kg): 45%
CO (Cardiac output) ([1]; IV bolus 1.3 μg/kg): 2.56 L/min
HR (Heart rate) ([1]; IV bolus 1.3 μg/kg): 85 beats/min
LV dP/dt (LV contractility) ([1]; IV bolus 1.3 μg/kg): 1606 mmHg/sec
LVEDA (LV end diastolic area) ([1]; IV bolus 1.3 μg/kg): 12.7 cm^2
LVEDV (LV end diastolic volume) ([1]; IV bolus 1.3 μg/kg): 54 mL
LVEF (LV ejection fraction) ([1]; IV bolus 1.3 μg/kg): 57%
LVESA (LV end systolic area) ([1]; IV bolus 1.3 μg/kg): 6.5 cm^2
LVESV (LV end systolic volume) ([1]; IV bolus 1.3 μg/kg): 23 mL
LVFAS (LV fractional area of shortening) ([1]; IV bolus 1.3 μg/kg): 49%
PSAP (Peak systolic aortic pressure) ([1]; IV bolus 1.3 μg/kg): 91 mmHg
SV (Stroke volume) ([1]; IV bolus 1.3 μg/kg): 30 mL
CO (Cardiac output) ([1]; IV bolus 2.6 μg/kg): 2.72 L/min
HR (Heart rate) ([1]; IV bolus 2.6 μg/kg): 92 beats/min
LV dP/dt (LV contractility) ([1]; IV bolus 2.6 μg/kg): 1675 mmHg/sec
LVEDA (LV end diastolic area) ([1]; IV bolus 2.6 μg/kg): 12.5 cm^2
LVEDV (LV end diastolic volume) ([1]; IV bolus 2.6 μg/kg): 52 mL
LVEF (LV ejection fraction) ([1]; IV bolus 2.6 μg/kg): 57%
LVESA (LV end systolic area) ([1]; IV bolus 2.6 μg/kg): 6.2 cm^2
LVESV (LV end systolic volume) ([1]; IV bolus 2.6 μg/kg): 22 mL
LVFAS (LV fractional area of shortening) ([1]; IV bolus 2.6 μg/kg): 50%
PSAP (Peak systolic aortic pressure) ([1]; IV bolus 2.6 μg/kg): 90 mmHg
SV (Stroke volume) ([1]; IV bolus 2.6 μg/kg): 30 mL
CO (Cardiac output) ([1]; IV bolus 4.4 μg/kg): 2.80 L/min
HR (Heart rate) ([1]; IV bolus 4.4 μg/kg): 94 beats/min
LV dP/dt (LV contractility) ([1]; IV bolus 4.4 μg/kg): 1682 mmHg/sec
LVEDA (LV end diastolic area) ([1]; IV bolus 4.4 μg/kg): 12.4 cm^2
LVEDV (LV end diastolic volume) ([1]; IV bolus 4.4 μg/kg): 51 mL
LVEF (LV ejection fraction) ([1]; IV bolus 4.4 μg/kg): 58%
LVESA (LV end systolic area) ([1]; IV bolus 4.4 μg/kg): 6.0 cm^2
LVESV (LV end systolic volume) ([1]; IV bolus 4.4 μg/kg): 22 mL
LVFAS (LV fractional area of shortening) ([1]; IV bolus 4.4 μg/kg): 52%
PSAP (Peak systolic aortic pressure) ([1]; IV bolus 4.4 μg/kg): 90 mmHg
SV (Stroke volume) ([1]; IV bolus 4.4 μg/kg): 30 mL
CO (Cardiac output) ([1]; IV bolus 13.1 μg/kg): 2.86 L/min
HR (Heart rate) ([1]; IV bolus 13.1 μg/kg): 107 beats/min
LV dP/dt (LV contractility) ([1]; IV bolus 13.1 μg/kg): 1760 mmHg/sec
LVEDA (LV end diastolic area) ([1]; IV bolus 13.1 μg/kg): 11.4 cm^2
LVEDV (LV end diastolic volume) ([1]; IV bolus 13.1 μg/kg): 46 mL
LVEF (LV ejection fraction) ([1]; IV bolus 13.1 μg/kg): 60%
LVESA (LV end systolic area) ([1]; IV bolus 13.1 μg/kg): 5.2 cm^2
LVESV (LV end systolic volume) ([1]; IV bolus 13.1 μg/kg): 18 mL
LVFAS (LV fractional area of shortening) ([1]; IV bolus 13.1 μg/kg): 53%
PSAP (Peak systolic aortic pressure) ([1]; IV bolus 13.1 μg/kg): 88 mmHg
SV (Stroke volume) ([1]; IV bolus 13.1 μg/kg): 28 mL
hemodynamic profile [2]: dose-dependent increases in heart rate, LV developed pressure (+dP/dt), and a corresponding decrease in blood pressure
ejection fraction after infusion ([3]; one subject, 9 ng/kg/min, from 20%): 24.5%
ejection fraction after infusion ([3]; one subject, 36 ng/kg/min, from 25.0%): 30.3%
ejection fraction after infusion ([3]; two subjects, 45 ng/kg/min, from 36.0% and from 28.0%, listed as h-SCP): 34.7% and 26.1%
